Experimental findings from patent US20250313554A1, “PTPN2 INHIBITORS” (Ness Therapeutics, Inc., priority 2022, published 2025) are described below.

One data set deals with GST-tagged PTPN2 protein (Homo sapiens (Human), UniProt P17706). Put plainly: Primary assay of PTPN2 enzymatic activity inhibition (DiFMUP fluorescence). Format: biochemical. Particulars: PTPN2 0.004 ng/μL, DiFUMP substrate 2 μM, 60 min at rt. The protocol:
Compound activity was determined using GST-tagged PTPN2 protein (Cat #31592, ActiveMotif) (SEQ ID NO: 1) in an in vitro enzymatic reaction. The enzymatic reaction was carried out in assay buffer (50 mM HEPES Na salt pH 7.2-7.4, 2 mM EDTA, 100 mM NaCl, 52 ng/μL BSA, and 6 mM DTT). The compounds were dispensed on a 384 well Diamond Well Plate (Axigen, Cat #P-384-120SQ-C-S) using the Biomek FX liquid handling system at 100× solutions of compounds in DMSO. 2×PTPN2 (final concentration 0.004 ng/μL) was prepared in 1× Assay buffer and 25 μL of mixture per well was added into Reaction plate (Optiplate, black, Perkin Elmer, Cat #6007270). Add 25 μL of 1× buffer to Ctrl- (Substrate w/o PTPN2) wells followed by centrifugation at 100 g for 1 min. Next step the Compounds were added to Reaction plate using Biomek station via following steps: 3 μl of 100× compounds (in DMSO) were mixed with 27 μL of Assay Buffer, then 5 μL of this mixture was added to Reaction plate with 25 μL of PTPN2 Mix. Plates were centrifuged for 1 min at 100 g and incubated for another 10 min at rt. Finally, 20 μL of 2.5× Substrate (DiFUMP, Invitrogen™ Cat #D6567) mix was added into appropriate wells of Reaction plate to the final concentration of 2 μM, plate was centrifuged at 100 g for 1 min followed by incubation at rt for 60 min, and the Fluorescence Intensity was measured using a Microplate Reader (ClarioStar Plus, excitation 360 nm, emission 450 nm). The % inhibition was then used to calculate the Ki values. The Ki values are shown in Table A, wherein “A” corresponds to Ki<1.0 nm, “B” corresponds to 1.0 nm≤Ki<5.0 nm, “C” corresponds to 5.0 nm≤Ki<10.0 nm, “D” corresponds to 10.0 nm≤Ki<50.0 nm, and “E” corresponds to 50.0 nm≤Ki<100.0 nm, and “F” corresponds to 100.0 nm≤Ki.

Data set [1] is described as follows: Pharmacokinetic (PK) study in mice, oral bioavailability. It counts as in vivo, Male CD-1 mice. Particulars: 10 mg/kg PO vs 2 mg/kg IV, 10% Ethanol, 30% PEG-400, 60% Phosal-50PG, form Solution. The method, then: Pharmacokinetic (PK) study in mice: Male CD-1 mice obtained from Charles River GmbH (Sulzfeld, Germany) with body weight ranging between 30 g to 40 g were used in the PK studies. Group of 12 mice were given a 2 mg/kg intravenous bolus (IV) dose of test article as a solution in 20% HP-beta-CD, and another group of 9 mice were given a 10 mg/kg oral (PO) dose of test article as a solution or suspension in [10% ethanol, 30% PEG-400 and 60% Phosal-50PG]. Blood samples (˜200 μL per time point) were collected twice from each animal—from orbital sinus and by cardiopuncture at 0.083, 0.25, 0.5, 1, 2, 4, 8 and 24 hours after IV administration, and at 0.5, 1, 2, 4, 8 and 24 hours after PO administration, 3 mice/time point. Blood samples were collected in tubes with Na-EDTA 0.5 M solution (1:10) and centrifuged for 10 min at 10,000 rpm at 2 to 8° C. to harvest plasma. Plasma samples were stored at −80° C. until LC/MS/MS analysis. Concentration in each plasma sample was determined by a non-validated LC/MS/MS. Data is acquired using multiple reaction monitoring (MRM) with specific transitions monitored for each compound. Pharmacokinetic Analysis: PK parameters were calculated by non-compartmental methods as described in Gibaldi and Perrier (Gibaldi and Perrier, 1982) using Phoenix® WinNonlin® version 6.3 (Certara L.P.). Following PO administration, percent bioavailability (Fabs) was determined by dividing the dose normalized mean area under the plasma concentration-time curve, extrapolated to the last time point (AUClast) obtained following PO dose by the mean dose normalized AUC of the animals dosed by IV injection. All PK parameters are presented as mean±standard deviation (SD). PK studies were conducted in mice for exemplary compounds of Formula (I). The percent bioavailability (Fabs) values determined are listed in Table C for certain compounds, together with the dosage, vehicle and form used in the studies.

The test system of data set [2] is B16F10 mouse melanoma cells. Put plainly: Tumor cells B16F10 cellular growth IFNγ-induced inhibition assay (CellTiter-Glo). Particulars: for pIC50: B16-F10, 72 h, 3 days of incubation; for inhibition at 100 µM: B16-F10, B16F10, 100 μM compound. Format: cell-based. The protocol:
B16F10 mouse melanoma cells (ATCC Cat #CRL-6475) were seeded at a density of 500 cells per well in a 384-well clear bottom plate (Corning Cat #3712, Corning, N.Y.) in 40 μL total volume of DMEM+10% FBS (PanEco Cat #C420, Russia and Sigma Cat #F4135, St. Louis, MO). Cells were allowed to adhere overnight at 37° C., 5% CO2. On the following day, 250× solutions of compounds in DMSO (Sigma Cat #D2650) were prepared into Cmpnds plate (Diamond Well Plate, Axigen, Cat #P-384-120SQ-C-S) (final concentration of 1×) and DMSO only controls were included. Dilution Plate (Diamond Well Plate (Axigen, Cat #P-384-120SQ-C-S) was prepared by adding 49 μL of culture medium per well: half of the plate with culture medium only, half with culture medium+IFNγ (5 ng/ml). A 1 μL aliquot of 250× compounds (Cmpnds plate) was added to 49 μL of culture medium (Dilution plate), then a 10 μL aliquot of the mixture was transferred to Reaction plate with 40 μL of cells followed by centrifugation at 240 g for 1 min. After 3 days of incubation, 10 μL of CellTiter-Glo (Promega) was added to the cells, plates were centrifuged at 240 g for 1 min, and luminescence signal was measured. For each compound, the percent growth inhibition at every compound dose level was calculated relative to the “DMSO/with IFNγ” control and used to determine the IC50.

The mark [3] stands for this setting: B16F10, no IFNγ, read-out: IC50 no IFNγ.
Setting [4] is: B16F10, with IFNγ, read-out: IC50 + IFNγ.
Where [5] appears, read: no IFNγ, read-out: % Growth Inhibition at 100 μM no IFNγ.
Where [6] appears, read: with IFNγ, read-out: % Growth Inhibition at 100 μM + IFNγ.

pIC50, pKi: −log10 of the molar value. Read-outs that look alike come from different tables or passages of the source.

Chain of GST-tagged PTPN2 protein (P17706 whole entry): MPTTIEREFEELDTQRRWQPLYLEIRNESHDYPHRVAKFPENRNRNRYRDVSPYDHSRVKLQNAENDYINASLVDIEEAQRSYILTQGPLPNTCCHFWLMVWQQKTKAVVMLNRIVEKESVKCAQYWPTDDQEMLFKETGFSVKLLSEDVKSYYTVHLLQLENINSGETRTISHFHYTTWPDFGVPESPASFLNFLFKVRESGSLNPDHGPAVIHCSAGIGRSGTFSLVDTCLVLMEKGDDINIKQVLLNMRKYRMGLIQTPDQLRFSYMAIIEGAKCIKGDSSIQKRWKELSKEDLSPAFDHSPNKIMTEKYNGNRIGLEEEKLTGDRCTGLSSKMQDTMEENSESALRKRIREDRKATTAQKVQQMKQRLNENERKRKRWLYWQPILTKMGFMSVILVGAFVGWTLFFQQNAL

Broadly, the pKi is the negative decadic logarithm of the Ki, by convention in mol/L. The low end stands for a high Ki, the high end for a low Ki. A word on the pIC50: it is the IC50 on a negative log10 scale, so that one unit is a factor of ten. One may read the inhibition as the share of the control response that was lost under treatment. As to `CC1CCN=C(Nc2cc(O)c(N3CC(=O)NS3(=O)=O)c(F)c2)N1` (stereo not drawn) [Compound 3, 5-[2-fluoro-6-hydroxy-4-[(6-methyl-1,4,5,6-tetrahydropyrimidin-2-yl)amino]phenyl]-1,1-dioxo-1,2,5-thiadiazolidin-3-one], the pKi on GST-tagged PTPN2 protein is 7.30 to 8.00. Further, the “Fabs, %” value in data set [1] turned out to be 12.5%. For the same compound, the pIC50 in data set [2] (setting [3]) was 4.30 to 5.00; in data set [2] (setting [4]) it was 5.00 to 5.30. The results for the inhibition at 100 µM in data set [2] (setting [5]) and in data set [2] (setting [6]) were 10 to 50% and 50 to 75%, respectively.
At GST-tagged PTPN2 protein, `COc1cc(O)nc(Nc2cc(O)c(N3CC(=O)NS3(=O)=O)c(F)c2)n1` [Compound 9, 5-[2-fluoro-6-hydroxy-4-[(4-hydroxy-6-methoxy-pyrimidin-2-yl)amino]phenyl]-1,1-dioxo-1,2,5-thiadiazolidin-3-one] had a pKi of more than 9.00. The “Fabs, %” value in data set [1] is recorded as 10.4%. Also, the pIC50 is less than 4.00 in data set [2] (setting [3]) and 5.00 to 5.30 in data set [2] (setting [4]). Further, the inhibition at 100 µM in data set [2] (setting [5]) is 10 to 50%; in data set [2] (setting [6]), 75 to 100%.
